Source: patent EP4603105A1, “PHARMACEUTICAL COMPOSITION CONTAINING CYCLIC COMPOUND HAVING SELECTIVE KRAS INHIBITORY EFFECT AGAINST HRAS AND NRAS” (CHUGAI SEIYAKU KABUSHIKI KAISHA, priority 2022, dated 2024)
Where two headings read alike, the source gives them in different places.

Assays:
[1] = biological target: GDP-bound NRAS wild-type protein (Homo sapiens, UniProt P01111); experiment: Binding to NRAS by surface plasmon resonance (SPR), KD and KD ratio to KRAS
In short: (§1)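 SPR, 30°C: Avi-biotin RAS·GDP captured via Biotin CAPture (~100–300 RU); running buffer HBS pH 7.4, 1 mM DTT, 10 mM MgCl2, 0.01% Tween 20, 10 µM GDP, 4% DMSO. Single-cycle kinetics, 100 µL/min, 75 s injections; 1:1 model → KD.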

HRAS wild-type protein = HRAS wild-type protein (Homo sapiens, UniProt P01112); experiment: Binding to HRAS by surface plasmon resonance (SPR), KD and KD ratio to KRAS
Sequence of HRAS wild-type protein (P01112 whole entry): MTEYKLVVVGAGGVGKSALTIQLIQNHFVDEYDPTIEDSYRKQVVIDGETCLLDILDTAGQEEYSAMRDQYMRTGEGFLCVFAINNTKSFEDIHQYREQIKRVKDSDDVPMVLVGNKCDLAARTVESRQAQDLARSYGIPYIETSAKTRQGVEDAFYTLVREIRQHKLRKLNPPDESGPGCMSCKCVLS
In short: as §1

[2] = system: human lung cancer strain NCI-H441; assay type: cell-based
In short: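 Proliferation was scored by […] measured after the reagent was added to cultures kept at 37°C in 5% carbon dioxide.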

[3] = ratio of KD value for GDP-bound NRAS wild-type protein to KD value for KRAS (SPR)
[4] = ratio of KD value for HRAS wild-type protein to KD value for KRAS (SPR)
[5] = ratio of KD for GDP-bound NRAS wild-type protein to KD for KRAS
[6] = ratio of KD for HRAS wild-type protein to KD for KRAS

Sequence of GDP-bound NRAS wild-type protein (P01111 whole entry): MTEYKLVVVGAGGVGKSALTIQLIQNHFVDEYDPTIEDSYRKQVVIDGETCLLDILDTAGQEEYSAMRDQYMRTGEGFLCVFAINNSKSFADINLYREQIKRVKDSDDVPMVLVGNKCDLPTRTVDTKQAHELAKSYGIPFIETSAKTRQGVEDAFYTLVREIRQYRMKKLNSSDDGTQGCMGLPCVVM

Question: What does the source list for `CCO[C@@H]1C[C@H]2C(=O)NC3(CC(C)(C)C3)C(=O)N(C)[C@@H](C3CCCC3)C(=O)N(C)[C@H](C(=O)N(C)C)CC(=O)N(C)[C@@H](CC)C(=O)N[C@@H]([C@@H](C)CC)C(=O)N(C)CC(=O)N(C)[C@H]3C/C=C\CCN(C3=O)[C@@H](Cc3ccc(Cl)cc3F)C(=O)N(C)CC(=O)N[C@@H](CCc3cc(F)c(C(F)(F)F)c(F)c3)C(=O)N2C1` [PP2048]?
Answer: NRAS /KRAS ([1]; ratio of the KD value with respect to GDP-bound NRAS wild-type protein to the KD value with respect to KRAS): A (a compound having 10 or more and less than 20 is denoted as A); HRAS /KRAS (HRAS wild-type protein; ratio of the KD value with respect to HRAS wild-type protein to the KD value with respect to KRAS): B (a compound having 3 or more and less than 10 is denoted as B); IC50 [2]: 3.6 nM

Question: For `CC[C@H](C)[C@@H]1NC(=O)[C@H](CC(F)F)N(C)C(=O)C[C@@H](C(=O)N(C)C)N(C)C(=O)[C@H](C2CCCC2)N(C)C(=O)C2(CC(C)(C)C2)NC(=O)[C@@H]2C[C@H](C)CN2C(=O)[C@H](CCc2cc(F)c(C(F)(F)F)c(F)c2)NC(=O)CN(C)C(=O)[C@H](Cc2ccc(C(F)(F)F)cc2)N2CC/C=C\C[C@@H](C2=O)N(C)C(=O)CN(C)C1=O` [PP1658], which “NRAS /KRAS” value [1, 3] is on record?
Answer: A (a compound having 10 or more and less than 20 is denoted as A)

Question: What about the “HRAS /KRAS” value (HRAS wild-type protein; [4]) of the same compound?
Answer: A (a compound having 10 or more and less than 20 is denoted as A)

Question: What about the IC50 [2] of the same compound?
Answer: 3.8 nM

Question: `CC[C@H](C)[C@@H]1NC(=O)[C@H](CC(C)C)N(C)C(=O)C[C@@H](C(=O)N(C)C)N(C)C(=O)[C@H](C2CCCC2)N(C)C(=O)C2(CCC2)NC(=O)[C@@H]2C[C@@H](C)CN2C(=O)[C@H](CCc2ccc(C(F)(F)F)c(OC)c2)NC(=O)CN(C)C(=O)[C@H](Cc2ccc(C)cc2)N2CC/C=C\C[C@@H](C2=O)N(C)C(=O)CN(C)C1=O` [PP1867] was tested. Which “NRAS /KRAS” value [1, 3] did it give?
Answer: A (a compound having 10 or more and less than 20 is denoted as A)

Question: And the “HRAS /KRAS” value (HRAS wild-type protein; [4])?
Answer: B (a compound having 3 or more and less than 10 is denoted as B)

Question: And the IC50 [2]?
Answer: 47.8 nM

Question: With `CCO[C@@H]1C[C@H]2C(=O)NC3(CCC3)C(=O)N(C)[C@@H](C3CCCC3)C(=O)N(C)[C@H](C(=O)N3CCOCC3)CC(=O)N(C)[C@@H](Cc3ccccc3C)C(=O)N[C@@H]([C@@H](C)CC)C(=O)N(C)CC(=O)N(C)[C@H]3CCCCCN(C3=O)[C@@H](Cc3ccc(C(F)(F)F)cc3)C(=O)N(C)CC(=O)N[C@@H](CCc3cc(F)c(C(F)(F)F)c(F)c3)C(=O)N2C1` [PP0931] as the compound, how does the “NRAS /KRAS” value [1, 5] read?
Answer: A (a compound having 10 or more and less than 20 is denoted as A)

Question: What about the “HRAS /KRAS” value (HRAS wild-type protein; [6]) of the same compound?
Answer: B (a compound having 3 or more and less than 10 is denoted as B)

Question: What about the IC50 [2] of the same compound?
Answer: 181 nM

Question: Which “NRAS /KRAS” value [1, 3] does the source give for `CC[C@H](C)[C@@H]1NC(=O)[C@H](CC)N(C)C(=O)C[C@@H](C(=O)N(C)C)N(C)C(=O)[C@H](C2CCCC2)N(C)C(=O)C2(CCCC2)N(C)C(=O)[C@@H]2CCCN2C(=O)[C@H](CCc2cc(F)c(C(F)(F)F)c(F)c2)NC(=O)CN(C)C(=O)[C@H](Cc2ccc(C)cc2)N2CC/C=C\C[C@@H](C2=O)N(C)C(=O)[C@@H]2CCCN2C1=O` [PP1811] here?
Answer: A (a compound having 10 or more and less than 20 is denoted as A)

Question: And the “HRAS /KRAS” value (HRAS wild-type protein; [4])?
Answer: B (a compound having 3 or more and less than 10 is denoted as B)

Question: What about the IC50 [2] of the same compound?
Answer: 14.3 nM

Question: What does the source list for `C#CC[C@H]1C(=O)N[C@@H]([C@@H](C)CC)C(=O)N(C)CC(=O)N(C)[C@H]2C/C=C\CCN(C2=O)[C@@H](Cc2ccc(C)cc2)C(=O)N(C)CC(=O)N[C@@H](CCc2ccc(C(F)(F)F)c(Cl)c2)C(=O)N2CC3(CC3)C[C@H]2C(=O)NC2(CC(C)(C)C2)C(=O)N(C)[C@@H](C2CCCC2)C(=O)N(C)[C@H](C(=O)N(C)C)CC(=O)N1C` [PP2982]?
Answer: NRAS /KRAS [1, 5]: A (a compound having 10 or more and less than 20 is denoted as A); HRAS /KRAS (HRAS wild-type protein; [6]): A (a compound having 10 or more and less than 20 is denoted as A); IC50 [2]: 11.9 nM

Question: For `CCC[C@H]1C(=O)N[C@@H]([C@@H](C)CC)C(=O)N(C)CC(=O)N(C)[C@H]2C/C=C\CCN(C2=O)[C@@H](Cc2ccc(C(F)(F)F)cc2)C(=O)N(C)CC(=O)N[C@@H](CCc2ccc(C3CC3)c(OC)c2)C(=O)N2C[C@H](OCC)C[C@H]2C(=O)NC2(CC(C)(C)C2)C(=O)N(C)[C@@H](C2CCCC2)C(=O)N(C)[C@H](C(=O)N(C)C)CC(=O)N1C` [PP2853], which “NRAS /KRAS” value [1, 5] is on record?
Answer: A (a compound having 10 or more and less than 20 is denoted as A)

Question: And the “HRAS /KRAS” value (HRAS wild-type protein; [6])?
Answer: A (a compound having 10 or more and less than 20 is denoted as A)

Question: And the IC50 ([2]; NCI-H441 cells, 4 days, CellTiter-Glo, read-out: NCl-H441 IC50)?
Answer: 40.2 nM
